Each structure is given as a SMILES string.

The assay has as its system Sprague Dawley rats with DSS-induced colitis. The experiment in a line: Rat colitis model: 9 days of 3% DSS-containing drinking water. Format: in vivo. The settings on record: 100 mg/kg PO, QD.

Procedure: Rat Colitis Model: 9 Days of 3% DSS-Containing Drinking Water
In this model, colitis was induced in SD rats by 9 days of ad lib exposure to drinking water containing 3% DSS. The disease activity index (DAI) score and ratio of colon weight:colon length were compared between three study groups (n=6 rats/group): vehicle, 3% DSS, and 3% DSS with positive control (sulfasalazine administered at 100 mg/kg PO, QD).
Acute colitis was induced by feeding female Sprague Dawley rats with 3% (wt/vol) DSS dissolved in drinking water. […] To quantify colitis with clinical activity, disease activity index (DAI) was determined daily for each animal as an average of three parameters: body weight change (scale 0-3), stool consistency (scale 0-3) and hemoccult blood (scale 0-3), as shown in Table 15. At necropsy, the entire colon was removed from the cecum to the rectum. The colon was measured for length, flushed with PBS to remove feces, weighed, and opened longitudinally to determine macroscopic score.

In the case of `O=C(O)c1cc(/N=N/c2ccc(S(=O)(=O)Nc3ccccn3)cc2)ccc1O` [sulfasalazine], the “terminal ratio of colon weight:colon length, difference with and without treatment” value is given as “significant”. For the same compound, the “disease activity index (DAI) score compared to DSS alone” value (from Day 5) was “attenuated the disease score”.
